The numbers were not newly measured in patent US20140316796A1, “SYSTEMS, METHODS, AND COMPUTER-READABLE MEDIA FOR LIMITED DISTRIBUTION OF SPECIALTY DRUG USING A COMPUTER HUB OPERATING AT A SINGLE ACCESS POINT” (Jazz Pharmaceuticals, priority 2013, published 2014), which cites them from elsewhere.

For the series the following is noted: pH 4.

In the case of `CSCC[C@@H]1NC(=O)[C@H](CC(C)C)NC(=O)[C@H](CCCNC(=N)N)NC(=O)[C@H](CO)NC(=O)[C@@H]2CSSC[C@@H]3NC(=O)[C@H](CO)NC(=O)CNC(=O)[C@H]([C@@H](C)O)NC(=O)[C@H](CSSC[C@H](N)C(=O)N[C@@H](CCCCN)C(=O)NCC(=O)N[C@@H](CCCCN)C(=O)NCC(=O)N[C@@H](C)C(=O)N[C@@H](CCCCN)C(=O)N2)NC(=O)[C@H](CSSC[C@@H](C(N)=O)NC(=O)[C@H](CCCCN)NC(=O)CNC(=O)[C@H](CO)NC(=O)[C@H](CCCNC(=N)N)NC3=O)NC(=O)[C@H](CC(=O)O)NC(=O)[C@H](Cc2ccc(O)cc2)NC1=O` [ziconotide], the solution stability entry was “stable at 45 °C for weeks”.
